Consider 29 molecules from patent publication US8686150B2 (Sanofi, priority 2011, dated 2014).

This assay addresses T1, human full-length recombinant PKC βII (Homo sapiens, UniProt P05771).
T1 construct: Active human full-length recombinant PKC βII; purchased Invitrogen GmbH, Darmstadt, Germany
As to the kind of experiment: Determination of PKC βII inhibition (Caliper mobility-shift kinase assay, Fluorescein-RFARKGSLRQKNV peptide substrate). Conditions: example compounds at a final concentration of 1.14 μM (±0.15 μM). The format is biochemical. The method in brief:
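Compounds were tested at 1.14 μM final. Enzyme was activated by PS, DAG and CaCl2 in Hepes pH 7.4 with MgCl2, with substrate 3 μM and ATP 120 μM as pre-mix concentrations. After 60 min at 32 °C and an EDTA stop, Caliper separation gave fractional turnover, which was normalised to no-compound and no-enzyme controls.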

T1 sequence (P05771 1-673 isoform P05771-2): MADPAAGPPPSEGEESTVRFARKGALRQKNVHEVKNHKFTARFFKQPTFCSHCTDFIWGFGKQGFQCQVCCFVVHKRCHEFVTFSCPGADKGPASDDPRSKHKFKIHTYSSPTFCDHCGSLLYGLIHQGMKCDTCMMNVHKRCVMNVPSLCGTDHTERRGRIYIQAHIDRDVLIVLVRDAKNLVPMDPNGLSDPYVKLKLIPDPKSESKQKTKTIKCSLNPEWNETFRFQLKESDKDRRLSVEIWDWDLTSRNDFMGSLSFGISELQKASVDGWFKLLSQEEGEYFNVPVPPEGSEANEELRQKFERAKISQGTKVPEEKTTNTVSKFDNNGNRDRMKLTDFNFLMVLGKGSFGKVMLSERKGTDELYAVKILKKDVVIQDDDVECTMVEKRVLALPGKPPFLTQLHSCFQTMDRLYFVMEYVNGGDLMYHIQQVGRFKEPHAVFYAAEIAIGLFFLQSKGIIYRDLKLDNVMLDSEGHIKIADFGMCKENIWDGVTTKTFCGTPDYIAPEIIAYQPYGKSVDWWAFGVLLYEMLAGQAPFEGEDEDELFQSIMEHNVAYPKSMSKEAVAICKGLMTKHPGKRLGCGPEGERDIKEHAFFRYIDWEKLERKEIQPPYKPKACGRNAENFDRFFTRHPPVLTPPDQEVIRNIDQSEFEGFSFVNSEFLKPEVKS

In the case of `CC(=O)N1CCC(NC(=O)c2cc(-c3ccc(O)c(F)c3)nc3[nH]nc(C)c23)CC1` [Example 357, 6-(3-Fluoro-4-hydroxy-phenyl)-3-methyl-1H-pyrazolo[3,4-b]pyridine-4-carboxylic acid (1-acetyl-piperidin-4-yl)-amide], the inhibition at 1.14 µM amounted to 21%. The figure for `CCN1CC2CC1CN2C(=O)c1cc(-c2ccc(O)c(F)c2)nc2[nH]nc(C)c12` (centres unmarked) [Example 358, (5-Ethyl-2,5-diaza-bicyclo[2.2.1]hept-2-yl)-[6-(3-fluoro-4-hydroxy-phenyl)-3-methyl-1H-pyrazolo[3,4-b]pyridin-4-yl]-methanone] is 28%. The figure for `Cc1n[nH]c2nc(-c3ccc(O)c(F)c3)cc(C(=O)NCC3CCC(=O)N3)c12` (centres unmarked) [Example 359, 6-(3-Fluoro-4-hydroxy-phenyl)-3-methyl-1H-pyrazolo[3,4-b]pyridine-4-carboxylic acid (5-oxo-pyrrolidin-2-ylmethyl)-amide] is 36%. The figure for `Cc1n[nH]c2nc(-c3ccc(O)c(F)c3)cc(C(=O)NC3CCN(C4CCCCC4)CC3)c12` [Example 360, 6-(3-Fluoro-4-hydroxy-phenyl)-3-methyl-1H-pyrazolo[3,4-b]pyridine-4-carboxylic acid (1-cyclohexyl-piperidin-4-yl)-amide] is 52%; for `Cc1n[nH]c2nc(-c3ccc(O)c(F)c3)cc(C(=O)NCC(C)(C)N3CCN(C)CC3)c12` [Example 362, 6-(3-Fluoro-4-hydroxy-phenyl)-3-methyl-1H-pyrazolo[3,4-b]pyridine-4-carboxylic acid [2-methyl-2-(4-methyl-piperazin-1-yl)-propyl]-amide] it is 80%. Consider `Cc1n[nH]c2nc(-c3ccc(O)c(F)c3)cc(C(=O)NCC(C)(C)CN)c12` [Example 363, 6-(3-Fluoro-4-hydroxy-phenyl)-3-methyl-1H-pyrazolo[3,4-b]pyridine-4-carboxylic acid (3-amino-2,2-dimethyl-propyl)-amide], for which the inhibition at 1.14 µM amounted to 72%. Next, `Cc1n[nH]c2nc(-c3ccc(O)c(F)c3)cc(C(=O)NC3CC(C)(C)N(C)C(C)(C)C3)c12` [Example 364, 6-(3-Fluoro-4-hydroxy-phenyl)-3-methyl-1H-pyrazolo[3,4-b]pyridine-4-carboxylic acid (1,2,2,6,6-pentamethyl-piperidin-4-yl)-amide]: 38%; `Cc1n[nH]c2nc(-c3ccc(O)c(F)c3)cc(C(=O)N3CCCN(C)CC3)c12` [Example 365, [6-(3-Fluoro-4-hydroxy-phenyl)-3-methyl-1H-pyrazolo[3,4-b]pyridin-4-yl]-(4-methyl-[1,4]diazepan-1-yl)-methanone]: 41%.

For the molecule `CCN1CCCN(C(=O)c2cc(-c3ccc(O)c(F)c3)nc3[nH]nc(C)c23)CC1` [Example 366, (4-Ethyl-[1,4]diazepan-1-yl)-[6-(3-fluoro-4-hydroxy-phenyl)-3-methyl-1H-pyrazolo[3,4-b]pyridin-4-yl]-methanone], the inhibition at 1.14 µM is 47%. Next, `Cc1n[nH]c2nc(-c3ccc(O)c(F)c3)cc(C(=O)NCC3CCCCN3)c12` (centres unmarked) [Example 367, 6-(3-Fluoro-4-hydroxy-phenyl)-3-methyl-1H-pyrazolo[3,4-b]pyridine-4-carboxylic acid (piperidin-2-ylmethyl)-amide]: 36%; `Cc1n[nH]c2nc(-c3ccc(O)c(F)c3)cc(C(=O)N3CC(=O)NC(C(C)C)C3)c12` (centres unmarked) [Example 368, 4-[6-(3-Fluoro-4-hydroxy-phenyl)-3-methyl-1H-pyrazolo[3,4-b]pyridine-4-carbonyl]-6-isopropyl-piperazin-2-one]: 58%. The figure for `Cc1n[nH]c2nc(-c3ccc(O)c(F)c3)cc(C(=O)N3CC4CCCN4CC3c3ccccc3)c12` (centres unmarked) [Example 369, [6-(3-Fluoro-4-hydroxy-phenyl)-3-methyl-1H-pyrazolo[3,4-b]pyridin-4-yl]-(3-phenyl-hexahydro-pyrrolo[1,2-a]pyrazin-2-yl)-methanone] is 34%; for `Cc1n[nH]c2nc(-c3ccc(O)c(F)c3)cc(C(=O)NCC(C)(c3ccccn3)N3CCCC3)c12` (centres unmarked) [Example 370, 6-(3-Fluoro-4-hydroxy-phenyl)-3-methyl-1H-pyrazolo[3,4-b]pyridine-4-carboxylic acid (2-pyridin-2-yl-2-pyrrolidin-1-yl-propyl)-amide] it is 48%. With `Cc1n[nH]c2nc(-c3ccc(O)c(F)c3)cc(C(=O)NCC(C)(CN3CCCC3)c3ccccn3)c12` (centres unmarked) [Example 371, 6-(3-Fluoro-4-hydroxy-phenyl)-3-methyl-1H-pyrazolo[3,4-b]pyridine-4-carboxylic acid (2-methyl-2-pyridin-2-yl-3-pyrrolidin-1-yl-propyl)-amide], the inhibition at 1.14 µM stood at 31%. Next, `Cc1n[nH]c2nc(-c3ccc(O)cc3)cc(C(=O)N3CCN(C)CC3c3ccccc3)c12` (centres unmarked) [Example 372, [6-(4-Hydroxy-phenyl)-3-methyl-1H-pyrazolo[3,4-b]pyridin-4-yl]-(4-methyl-2-phenyl-piperazin-1-yl)-methanone]: 66%; `Cc1n[nH]c2nc(-c3ccc(O)cc3)cc(C(=O)NC3CC4(CCNCC4)c4ccccc43)c12` (centres unmarked) [Example 373, 6-(4-Hydroxy-phenyl)-3-methyl-1H-pyrazolo[3,4-b]pyridine-4-carboxylic acid (2,3-dihydro-spiro[1H-indene-1,4′-piperidin]-3-yl)-amide]: 96%.

Take `Cc1n[nH]c2nc(-c3ccc(O)cc3)cc(C(=O)N3CCNCC3c3cccnc3)c12` (centres unmarked) [Example 374, [6-(4-Hydroxy-phenyl)-3-methyl-1H-pyrazolo[3,4-b]pyridin-4-yl]-(2-pyridin-3-yl-piperazin-1-yl)-methanone]: the inhibition at 1.14 µM turned out to be 99%.

On to `Cc1n[nH]c2nc(-c3ccc(O)cc3)cc(C(=O)N3CCNC(Cc4ccccc4)C3)c12` (centres unmarked) [Example 375, (3-Benzyl-piperazin-1-yl)-[6-(4-hydroxy-phenyl)-3-methyl-1H-pyrazolo[3,4-b]pyridin-4-yl]-methanone], for which the inhibition at 1.14 µM worked out at 90%. The figure for `COc1ccc(C(CNC(=O)c2cc(-c3ccc(O)cc3)nc3[nH]nc(C)c23)N(C)C)cc1` (centres unmarked) [Example 376, 6-(4-Hydroxy-phenyl)-3-methyl-1H-pyrazolo[3,4-b]pyridine-4-carboxylic acid [2-dimethylamino-2-(4-methoxy-phenyl)-ethyl]-amide] is 64%; for `Cc1n[nH]c2nc(-c3ccc(O)cc3)cc(C(=O)NC(CN3CCCC3)c3ccccc3)c12` (centres unmarked) [Example 377, 6-(4-Hydroxy-phenyl)-3-methyl-1H-pyrazolo[3,4-b]pyridine-4-carboxylic acid (1-phenyl-2-pyrrolidin-1-yl-ethyl)-amide] it is 69%; for `Cc1n[nH]c2nc(-c3ccc(O)cc3)cc(C(=O)N3CCNCC3c3ccc(Cl)cc3)c12` (centres unmarked) [Example 378, [2-(4-Chloro-phenyl)-piperazin-1-yl]-[6-(4-hydroxy-phenyl)-3-methyl-1H-pyrazolo[3,4-b]pyridin-4-yl]-methanone] it is 87%.

For the molecule `Cc1n[nH]c2nc(-c3ccc(O)cc3)cc(C(=O)N3CCN(C(=O)N4CCCC4)CC3)c12` [Example 379, {4-[6-(4-Hydroxy-phenyl)-3-methyl-1H-pyrazolo[3,4-b]pyridine-4-carbonyl]-piperazin-1-yl}-pyrrolidin-1-yl-methanone], the inhibition at 1.14 µM turned out to be 86%. The figure for `Cc1n[nH]c2nc(-c3ccc(O)cc3)cc(C(=O)N3CCN(C(=O)c4ccoc4)CC3)c12` [Example 380, [4-(Furan-3-carbonyl)-piperazin-1-yl]-[6-(4-hydroxy-phenyl)-3-methyl-1H-pyrazolo[3,4-b]pyridin-4-yl]-methanone] is 83%.

With `COc1ccccc1C(=O)N1CCN(C(=O)c2cc(-c3ccc(O)cc3)nc3[nH]nc(C)c23)CC1` [Example 381, [6-(4-Hydroxy-phenyl)-3-methyl-1H-pyrazolo[3,4-b]pyridin-4-yl]-[4-(2-methoxy-benzoyl)-piperazin-1-yl]-methanone], the inhibition at 1.14 µM worked out at 37%. Next, `Cc1n[nH]c2nc(-c3ccc(O)cc3)cc(C(=O)NC3CCN(CCc4ccccc4)CC3)c12` [Example 382, 6-(4-Hydroxy-phenyl)-3-methyl-1H-pyrazolo[3,4-b]pyridine-4-carboxylic acid (1-phenethyl-piperidin-4-yl)-amide]: 67%; `Cc1n[nH]c2nc(-c3ccc(O)cc3)cc(C(=O)N3CCN4CCC[C@H]4C3)c12` [Example 383, (S)-Hexahydro-pyrrolo[1,2-a]pyrazin-2-yl-[6-(4-hydroxy-phenyl)-3-methyl-1H-pyrazolo[3,4-b]pyridin-4-yl]-methanone]: 66%; `Cc1n[nH]c2nc(-c3ccc(O)cc3)cc(C(=O)NC3CCN(Cc4ccccc4)C3)c12` (centres unmarked) [Example 384, 6-(4-Hydroxy-phenyl)-3-methyl-1H-pyrazolo[3,4-b]pyridine-4-carboxylic acid (1-benzyl-pyrrolidin-3-yl)-amide]: 67%. With `Cc1n[nH]c2nc(-c3ccc(O)cc3)cc(C(=O)N3CCC(Nc4ccccc4)C3)c12` (centres unmarked) [Example 385, [6-(4-Hydroxy-phenyl)-3-methyl-1H-pyrazolo[3,4-b]pyridin-4-yl]-(3-phenylamino-pyrrolidin-1-yl)-methanone], the inhibition at 1.14 µM stood at 24%. Next, `Cc1n[nH]c2nc(-c3ccc(O)cc3)cc(C(=O)N3CC4CN(Cc5ccccc5)CC4C3)c12` (centres unmarked) [Example 386, (5-Benzyl-hexahydro-pyrrolo[3,4-c]pyrrol-2-yl)-[6-(4-hydroxy-phenyl)-3-methyl-1H-pyrazolo[3,4-b]pyridin-4-yl]-methanone]: 51%.
